Legend:
Experiment in all cases: relative viability (nuclei count vs DMSO), 5 days (fraction); higher = more cells survive
CAP-232 + Dasatinib = compound: C[C@H]([C@@H](C(=O)N)NC(=O)[C@@H]1CSSC[C@@H](C(=O)N[C@H](C(=O)N[C@@H](C(=O)N[C@H](C(=O)N1)CCCCN)CC2=CNC3=CC=CC=C32)CC4=CC=C(C=C4)O)NC(=O)[C@@H](CC5=CC=CC=C5)N)O [CAP-232] + Cc1nc(Nc2ncc(C(=O)Nc3c(C)cccc3Cl)s2)cc(N2CCN(CCO)CC2)n1 [Dasatinib] (partner 0.075 µM)
Outline: (§1)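 Relative viability equals treated-well nuclei counts divided by vehicle-well nuclei counts. Counts came from 4× images of lung cancer cell lines grown in 1536-well plates for 5 days after pin-tool dosing on the day after seeding. Dosing used one drug alone or a fixed anchor-drug dose plus five library-drug doses (not always all listed) in √10 steps, and values are medians of duplicate plates.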

CAP-232 + Pictilisib = compound: C[C@H]([C@@H](C(=O)N)NC(=O)[C@@H]1CSSC[C@@H](C(=O)N[C@H](C(=O)N[C@@H](C(=O)N[C@H](C(=O)N1)CCCCN)CC2=CNC3=CC=CC=C32)CC4=CC=C(C=C4)O)NC(=O)[C@@H](CC5=CC=CC=C5)N)O [CAP-232] + CS(=O)(=O)N1CCN(Cc2cc3nc(-c4cccc5[nH]ncc45)nc(N4CCOCC4)c3s2)CC1 [Pictilisib] (partner 1 µM)
Outline: as §1

CAP-232 + Alpelisib = compound: C[C@H]([C@@H](C(=O)N)NC(=O)[C@@H]1CSSC[C@@H](C(=O)N[C@H](C(=O)N[C@@H](C(=O)N[C@H](C(=O)N1)CCCCN)CC2=CNC3=CC=CC=C32)CC4=CC=C(C=C4)O)NC(=O)[C@@H](CC5=CC=CC=C5)N)O [CAP-232] + Cc1nc(NC(=O)N2CCC[C@H]2C(N)=O)sc1-c1ccnc(C(C)(C)C(F)(F)F)c1 [Alpelisib] (partner 2 µM)
Outline: as §1

CAP-232 + Phenformin = compound: C[C@H]([C@@H](C(=O)N)NC(=O)[C@@H]1CSSC[C@@H](C(=O)N[C@H](C(=O)N[C@@H](C(=O)N[C@H](C(=O)N1)CCCCN)CC2=CNC3=CC=CC=C32)CC4=CC=C(C=C4)O)NC(=O)[C@@H](CC5=CC=CC=C5)N)O [CAP-232] + N=C(N)NC(=N)NCCc1ccccc1 [Phenformin] (partner 250 µM)
Outline: as §1

CAP-232 + Lapatinib = compound: C[C@H]([C@@H](C(=O)N)NC(=O)[C@@H]1CSSC[C@@H](C(=O)N[C@H](C(=O)N[C@@H](C(=O)N[C@H](C(=O)N1)CCCCN)CC2=CNC3=CC=CC=C32)CC4=CC=C(C=C4)O)NC(=O)[C@@H](CC5=CC=CC=C5)N)O [CAP-232] + CS(=O)(=O)CCNCc1ccc(-c2ccc3ncnc(Nc4ccc(OCc5cccc(F)c5)c(Cl)c4)c3c2)o1 [Lapatinib] (partner 2 µM)
Outline: as §1

Cell Line | relative viability (CAP-232 + Dasatinib; first compound 0.4 µM) | relative viability (CAP-232 + Dasatinib; first compound 1.265 µM) | relative viability (CAP-232 + Dasatinib; first compound 4 µM) | relative viability (CAP-232 + Dasatinib; first compound 12.65 µM) | relative viability (CAP-232 + Pictilisib; first compound 0.4 µM) | relative viability (CAP-232 + Pictilisib; first compound 1.265 µM) | relative viability (CAP-232 + Pictilisib; first compound 4 µM) | relative viability (CAP-232 + Pictilisib; first compound 12.65 µM) | relative viability (CAP-232 + Alpelisib; first compound 0.4 µM) | relative viability (CAP-232 + Alpelisib; first compound 1.265 µM) | relative viability (CAP-232 + Alpelisib; first compound 4 µM) | relative viability (CAP-232 + Alpelisib; first compound 12.65 µM) | relative viability (CAP-232 + Phenformin; first compound 0.4 µM) | relative viability (CAP-232 + Phenformin; first compound 1.265 µM) | relative viability (CAP-232 + Phenformin; first compound 4 µM) | relative viability (CAP-232 + Phenformin; first compound 12.65 µM) | relative viability (CAP-232 + Lapatinib; first compound 0.4 µM) | relative viability (CAP-232 + Lapatinib; first compound 1.265 µM) | relative viability (CAP-232 + Lapatinib; first compound 4 µM) | relative viability (CAP-232 + Lapatinib; first compound 12.65 µM)
NCI-H1395 | 0.413 | 0.445 | 0.426 | 0.388 | 0.593 | 0.433 | 0.602 | 0.576 | 0.888 | 1.08 | 0.912 | 0.848 | 0.46 | 0.4 | 0.448 | 0.453 | 1.01 | 0.933 | 1.09 | 0.911
NCI-H1437 | 0.547 | 0.343 | 0.358 | 0.416 | 0.38 | 0.426 | 0.515 | 0.279 | 0.901 | 1.04 | 1.05 | 0.768 | 0.297 | 0.307 | 0.327 | 0.254 | 0.806 | 0.853 | 0.795 | 0.583
NCI-H1563 | 0.449 | 0.448 | 0.477 | 0.432 | 0.677 | 0.626 | 0.689 | 0.486 | 0.92 | 0.955 | 0.908 | 0.626 | 0.698 | 0.643 | 0.598 | 0.37 | 1.09 | 0.862 | 1.07 | 0.635
NCI-H1651 | 0.357 | 0.395 | 0.465 | 0.33 | 0.666 | 0.685 | 0.624 | 0.368 | 1.01 | 0.841 | 1.08 | 0.728 | 0.407 | 0.32 | 0.352 | 0.25 | 0.944 | 0.834 | 0.913 | 0.484
NCI-H1666 | 0.904 | 0.757 | 0.893 | 0.678 | 0.44 | – | 0.356 | 0.248 | 0.991 | – | 1.05 | 0.816 | 0.611 | 0.575 | 0.573 | 0.593 | 0.687 | – | 0.65 | 0.378
NCI-H1734 | 0.45 | 0.459 | 0.461 | 0.446 | 0.393 | 0.44 | 0.455 | 0.462 | 0.611 | 0.662 | 0.755 | 0.702 | 0.369 | 0.321 | 0.387 | 0.264 | 1 | 1 | 0.95 | 0.73
NCI-H1755 | 0.358 | 0.461 | 0.48 | 0.372 | 0.379 | 0.402 | 0.452 | 0.415 | 0.984 | 0.91 | 1.1 | 0.763 | 0.676 | 0.626 | 0.622 | 0.582 | 1.13 | 0.984 | 1.23 | 1.02
NCI-H1792 | 0.811 | 0.743 | 0.95 | 0.78 | 0.26 | 0.323 | 0.3 | 0.204 | 0.825 | 0.823 | 0.819 | 0.399 | 0.129 | 0.193 | 0.247 | 0.188 | 1.48 | 0.917 | 0.95 | 0.856
NCI-H1793 | 0.382 | 0.365 | 0.393 | 0.367 | 0.334 | 0.284 | 0.31 | 0.283 | 0.829 | 0.669 | 0.573 | 0.627 | 0.4 | 0.367 | 0.329 | 0.372 | 0.563 | 0.625 | 0.75 | 0.745
NCI-H1915 | 0.326 | 0.31 | 0.303 | 0.287 | 0.878 | 0.852 | 1.01 | 0.914 | 1.05 | 1.02 | 1.04 | 1.06 | 0.419 | 0.356 | 0.407 | 0.397 | 1.04 | 0.957 | 1.04 | 0.982
NCI-H1944 | 0.215 | 0.197 | 0.21 | 0.182 | 0.371 | 0.33 | 0.394 | 0.354 | 0.956 | 0.806 | 0.794 | 0.782 | 0.211 | 0.207 | 0.221 | 0.181 | 0.942 | 0.729 | 0.998 | 0.773
NCI-H1975 | 0.513 | 0.319 | 0.468 | 0.21 | 0.262 | 0.261 | 0.313 | 0.191 | 0.734 | 0.579 | 0.704 | 0.434 | 0.449 | 0.413 | 0.437 | 0.332 | 1.03 | 0.867 | 1.11 | 0.583
NCI-H1993 | 0.619 | 0.539 | 0.682 | 0.558 | 0.887 | 0.935 | 0.977 | 0.768 | 0.605 | 0.674 | 0.719 | 0.633 | 0.497 | 0.541 | 0.545 | 0.564 | 0.877 | 0.791 | 0.915 | 0.673
NCI-H2009 | 0.288 | 0.278 | 0.273 | 0.195 | 0.711 | 0.728 | 0.88 | 0.478 | 1.17 | 1.08 | 1.13 | 1.03 | 0.501 | 0.493 | 0.547 | 0.42 | 1.02 | 0.896 | 0.913 | 0.848

— the supplement of paper PMC10307832
